# Measured values reported in patent US20180273531A1, “PYRIMIDINE COMPOUND AND MEDICAL USE THEREOF” (Japan Tobacco Inc., priority 2004, published 2018).
# What was measured:
# Assay type in all cases: cell-based
# p27 protein = p27 protein induction test (Western blotting); details: test substance (0.1 1M), 24 hrs, ACHN cells or HT-29 cells, compared to DMSO, n=2
# Method in brief: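 p27 level taken as anti-p27 band density by densitometry, mean of n=2, with DMSO as control. Samples loaded at amount equivalent to 10 μg BSA. Cells were ACHN or HT-29, exposed 24 h to […] test substance after 24 h pre-culture.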
# [1] = test system: colorectal cancer cell line HT-29 cells; test: Growth inhibitory effect against cancer cell lines (3H-thymidine uptake), HT-29; details: Homo sapiens, HT-29, inhibition of 3H-thymidine uptake; test substance 18 hrs, then 3H-thymidine 6 hrs; triplicate
# Method in brief: (§1)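 IC50 = concentration reducing ^3H-thymidine incorporation to 50% of DMSO control, measured in triplicate. Compound added 24 hrs after plating (1.0×10^4 cells/well); label (0.25 μCi/well) given after 18 hrs of treatment, followed by 6 hrs further culture and scintillation counting of harvested cells.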
# [2] = test system: Renal cancer cell line ACHN cell; test: Growth inhibitory effect against cancer cell lines (3H-thymidine uptake), ACHN; details: Homo sapiens, ACHN
# Method in brief: as §1
# p15 protein = test: Evaluation of p15 induction activity (Western blotting); details: test substance 0.1 μM, 24 hrs, ACHN cells or HT-29 cells, compared to DMSO, n=2
# Method in brief: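 p15 protein quantified by densitometry of anti-p15 Western blots (10 μg protein per lane, mean of n=2). Samples came from HT-29 or ACHN cells given 0.1 μM compound for 24 h after 24 h plating, with DMSO as control.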
IC50 [1] [nM],IC50 [2] [nM],SMILES,fold induction at 0.1 µM (p27 protein),fold induction at 0.1 µM (p15 protein)
< 10,10 to 100,CCc1ccc(Nc2c3c(=O)n(C)c(=O)n(-c4cccc(NS(C)(=O)=O)c4)c3c(C)c(=O)n2C)c(F)c1 [Example 4-51],≥ 1.5,≥ 1.5
< 10,100 to 1000,Cc1cc(-n2c(=O)n(C3CC3)c(=O)c3c(Nc4ccc(I)cc4F)n(C)c(=O)c(C)c32)ccc1NS(C)(=O)=O [Example 4-117],≥ 1.5,≥ 1.5
< 10,10 to 100,CCS(=O)(=O)c1cccc(-n2c(=O)n(C3CC3)c(=O)c3c(Nc4ccc(I)cc4F)n(C)c(=O)c(C)c32)c1 [Example 4-58],≥ 1.5,≥ 1.5
< 10,10 to 100,Cc1c(=O)n(C)c(Nc2ccc(I)cc2F)c2c(=O)n(C3CC3)c(=O)n(-c3ccc4nc[nH]c4c3)c12 [Example 4-107],≥ 1.5,≥ 1.5
< 10,100 to 1000,Cc1c(=O)n(C)c(Nc2ccc(I)cc2F)c2c(=O)n(C3CC3)c(=O)n(-c3ccc4nc(O)[nH]c4c3)c12 [Example 4-103],≥ 1.5,≥ 1.5
< 10,10 to 100,Cc1c(=O)n(C)c(Nc2ccc(I)cc2F)c2c(=O)n(C3CC3)c(=O)n(-c3ccccc3)c12 [Example 4-72],≥ 1.5,≥ 1.5
< 10,10 to 100,Cc1c(=O)n(C)c(Nc2ccc(I)cc2F)c2c(=O)n(C3CC3)c(=O)n(-c3ccc4c(c3)NC(=O)C4(C)C)c12 [Example 4-128],≥ 1.5,≥ 1.5
10 to 100,100 to 1000,C#Cc1ccc(Nc2c3c(=O)n(CC)c(=O)n(-c4cccc(NC(C)=O)c4)c3c(C)c(=O)n2C)c(F)c1 [Example 4-43],≥ 1.5,≥ 1.5
< 10,10 to 100,Cc1c(=O)n(C)c(Nc2ccc(I)cc2F)c2c(=O)n(C3CC3)c(=O)n(-c3ccc4[nH]nnc4c3)c12 [Example 4-121],≥ 1.5,≥ 1.5
< 10,10 to 100,Cc1c(=O)n(C)c(Nc2ccc(I)cc2F)c2c(=O)n(C)c(=O)n(-c3ccc(S(N)(=O)=O)cc3)c12 [Example 4-119],≥ 1.5,≥ 1.5
10 to 100,100 to 1000,Cc1c(=O)n(C)c(Nc2ccc(I)cc2F)c2c(=O)n(C3CC3)c(=O)n(-c3ccc(C(=O)O)cc3)c12 [Example 4-90],≥ 1.5,≥ 1.5
10 to 100,100 to 1000,CCCc1ccc(Nc2c3c(=O)n(C4CC4)c(=O)n(-c4cccc(NC(C)=O)c4)c3c(C)c(=O)n2C)c(F)c1 [Example 4-53],≥ 1.5,≥ 1.5
10 to 100,100 to 1000,C#Cc1ccc(Nc2c3c(=O)n(C4CC4)c(=O)n(-c4ccc(NC(C)=O)cc4)c3c(C)c(=O)n2C)c(F)c1 [Example 4-71],≥ 1.5,≥ 1.5
< 10,10 to 100,CC(=O)Nc1cccc(-n2c(=O)n(C3CC3)c(=O)c3c(Nc4ccc(C5CC5)cc4F)n(C)c(=O)c(C)c32)c1 [Example 4-67],≥ 1.5,≥ 1.5
< 10,10 to 100,Cc1c(=O)n(C)c(Nc2ccc(I)cc2F)c2c(=O)n(C3CC3)c(=O)n(-c3ccc4c(c3)NC(=O)CO4)c12 [Example 4-118],≥ 1.5,≥ 1.5
< 10,10 to 100,CCC(=O)Nc1cccc(-n2c(=O)n(C3CC3)c(=O)c3c(Nc4ccc(I)cc4F)n(C)c(=O)c(C)c32)c1 [Example 4-60],≥ 1.5,≥ 1.5

# The remaining lines, values behind:
SMILES,IC50 [1] [nM],IC50 [2] [nM],fold induction at 0.1 µM (p27 protein),fold induction at 0.1 µM (p15 protein)
CC(=O)Nc1cccc(-n2c(=O)n(C3CC3)c(=O)c3c(Nc4ccc(CCF)cc4F)cc(=O)n(C)c32)c1 [Example 1-342],< 10,100 to 1000,≥ 1.5,≥ 1.5
CCNS(=O)(=O)c1cccc(-n2c(=O)n(C3CC3)c(=O)c3c(Nc4ccc(Br)cc4F)cc(=O)n(C)c32)c1 [Example 1-295],10 to 100,100 to 1000,≥ 1.5,≥ 1.5
C#Cc1ccc(Nc2cc(=O)n(C)c3c2c(=O)n(C2CC2)c(=O)n3-c2cccc(NS(=O)(=O)CC)c2)c(F)c1 [Example 1-289],< 10,< 10,≥ 1.5,≥ 1.5
Cn1c(=O)cc(Nc2ccc(CCF)cc2)c2c(=O)n(C3CC3)c(=O)n(-c3ccccc3)c21 [Example 1-293],100 to 1000,100 to 1000,≥ 1.5,≥ 1.5
CSc1ccc(Nc2cc(=O)n(C)c3c2c(=O)n(C2CC2)c(=O)n3-c2cccc(NS(C)(=O)=O)c2)c(F)c1 [Example 1-286],< 10,10 to 100,≥ 1.5,≥ 1.5
Cn1c(=O)cc(Nc2ccc(Br)cc2F)c2c(=O)n(C3CC3)c(=O)n(-c3cccc(S(=O)(=O)N4CCCCC4)c3)c21 [Example 1-317],10 to 100,100 to 1000,≥ 1.5,≥ 1.5
Cn1c(=O)cc(Nc2ccc(CCF)cc2F)c2c(=O)n(C3CC3)c(=O)n(-c3cccc(NS(C)(=O)=O)c3)c21 [Example 1-338],< 10,10 to 100,≥ 1.5,≥ 1.5
Cn1c(=O)cc(Nc2ccc3sccc3c2)c2c(=O)n(C3CC3)c(=O)n(-c3ccccc3)c21 [Example 1-328],10 to 100,100 to 1000,≥ 1.5,≥ 1.5
Cn1c(=O)cc(Nc2ccc(Br)cc2F)c2c(=O)n(C3CC3)c(=O)n(-c3cccc(N)c3)c21 [Example 1-264],10 to 100,100 to 1000,≥ 1.5,≥ 1.5
CCc1ccc(Nc2cc(=O)n(C)c3c2c(=O)n(C2CC2)c(=O)n3-c2cccc(NC(C)=O)c2)c(F)c1 [Example 1-296],< 10,100 to 1000,≥ 1.5,≥ 1.5
Cn1c(=O)cc(Nc2ccc(C(F)(F)F)cc2F)c2c(=O)n(C3CC3)c(=O)n(-c3cccc(NS(C)(=O)=O)c3)c21 [Example 1-301],10 to 100,100 to 1000,≥ 1.5,≥ 1.5
C#Cc1ccc(Nc2cc(=O)n(C)c3c2c(=O)n(C2CC2)c(=O)n3-c2cccc(NS(=O)(=O)CCC)c2)c(F)c1 [Example 1-320],< 10,10 to 100,≥ 1.5,≥ 1.5
CONC(=O)Nc1cccc(-n2c(=O)n(C3CC3)c(=O)c3c(Nc4ccc(Br)cc4F)cc(=O)n(C)c32)c1 [Example 1-327],10 to 100,100 to 1000,≥ 1.5,≥ 1.5
